# Results published in publication PMC3781220 (The Journal of organic chemistry, 2010).
# Read-outs that look alike come from different tables or passages of the source.
# Key:
# [1] = target: T1, recombinant yeast squalene synthase (Saccharomyces cerevisiae, UniProt P29704); type: biochemical; conditions: for potency ratio of 2R,3S enantiomer over 2S,3R enantiomer, absence of PPi: no added PPi
# T1 sequence (P29704 1-420 limits assumed): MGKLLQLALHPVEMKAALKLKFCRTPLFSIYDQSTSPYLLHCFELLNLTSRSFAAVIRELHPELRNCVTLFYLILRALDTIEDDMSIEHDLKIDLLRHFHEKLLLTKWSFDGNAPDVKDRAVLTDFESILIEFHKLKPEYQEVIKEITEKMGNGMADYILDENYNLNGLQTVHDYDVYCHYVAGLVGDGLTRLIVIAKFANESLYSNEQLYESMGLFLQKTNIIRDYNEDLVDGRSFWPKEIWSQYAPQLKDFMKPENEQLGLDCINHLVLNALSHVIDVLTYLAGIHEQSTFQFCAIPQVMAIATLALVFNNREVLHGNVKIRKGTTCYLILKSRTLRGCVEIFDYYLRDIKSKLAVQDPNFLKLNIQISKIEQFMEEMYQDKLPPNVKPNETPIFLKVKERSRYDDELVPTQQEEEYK
# [2] = target: T1, recombinant yeast squalene synthase; conditions: cited from earlier work
structure (smiles),measurement,setting,value
"CC(C)=CCC/C(C)=C/CCCCN1[C@H](COP(=O)([O-])OP(=O)([O-])[O-])[C@@]1(C)CC/C=C(\C)CCC=C(C)C.CCCC[N+](CCCC)(CCCC)CCCC.CCCC[N+](CCCC)(CCCC)CCCC.CCCC[N+](CCCC)(CCCC)CCCC (relative stereo) [(2R,3S)-6-OPP, (2R,3S)-trans-[2-((E)-4,8-Dimethyl-3,7-nonadienyl)-1-((E)-6, 10-dimethyl-5,9-undecadienyl)-2-methylaziridin-3-yl]methyl Diphosphate, Tris (tetrabutylammonium) Salt]","potency ratio of 2R,3S enantiomer over 2S,3R enantiomer, presence of PPi",[1]; 1.5 mM PPi,4 fold
same,synergistic effect of the PPi additive on inhibition,[1]; IC50 −PPi versus +PPi,almost no change
same,"potency ratio of 2R,3S enantiomer over 2S,3R enantiomer, absence of PPi",[1],about 16 fold
same,"potency ratio of 2R,3S enantiomer over 2S,3R enantiomer, absence of PPi","[1]; listed as 2R,3S enantiomer",16 fold
same,IC50,"[1]; read-out: IC50, +PPi, 1.5 mM PPi added, pH 7.2, 100 μM [3H]FPP, ± standard error",1.17 ± 0.08 µM
"CC(C)=CCC/C(C)=C/CC/C(C)=C/C1C(COP(=O)(O)OP(=O)(O)O)C1(C)CC/C=C(\C)CCC=C(C)C (stereo in doubt) [PSPP, presqualene diphosphate]",Ki,"[2]; read-out: Ki PSPP, affinity of intermediate for the enzyme",75 ± 20 µM
"CC(C)=CCC/C(C)=C/CC/C(C)=C/COP(=O)(O)OP(=O)(O)O [FPP, (E,E)-farnesyl diphosphate, reference compound]",Km,"[1]; read-out: Km for FPP, substrate constant given with the Ki experiment",20 µM
same,S0.5 FPP,[2]; affinity of substrate for the enzyme,19 ± 6 µM
